In article PMC10809383, “Synthesis and migrastatic activity of cytochalasin analogues lacking a macrocyclic moiety” (RSC Medicinal Chemistry, 2023):

Key:
Type in all cases: cell-based
[1] = tested on: human melanoma cells (BLM); test: WST-1 viability assay, BLM cells; settings: for IC50: Homo sapiens, 72 h treatment, WST-1 assay, 2D culture, 0–50 μM; for selectivity index (SI): MRC-5 versus BLM, 72 h, WST-1
Description: (§1) In addition, the cytotoxic activity of compounds 17, 20, and 22–30 was assessed by the WST-1 viability assay using BLM (human melanoma) and MRC-5 (noncancerous human fibroblasts) cells growing in a monolayer (2D cultures, Table 2) after 72 h of treatment.
(§2) Human cells from melanoma (BLM) and human lung fibroblasts (MRC-5, Merck, USA) were used to evaluate in vitro cytotoxicity of the prepared compounds. The cells were maintained at the exponential phase of growth (passaging done by trypsin–EDTA solution) in DMEM and MEM, for BLM and MRC-5, respectively, with stable L-glutamine and supplemented with 10% fetal bovine serum (Thermo Fisher Scientific, USA). The cells were kept in an incubator at 37 °C, 5% CO2 in the atmosphere, and 95% humidity.
(§3) The compound cytotoxicity was determined by a WST-1 viability assay (Merck, USA). The amount of 5000 BLM and MRC-5 cells were seeded into individual wells of 96-well plates in 100 μL of cell cultivation media and maintained in an incubator for 16 h. After this period, the cells were treated with a concentration series (0–50 μM) of the tested compounds diluted in another 100 μL of cultivation media, which was added to the wells containing cells and incubated for 72 h. Then, BLM and MRC-5 cell viability was evaluated by WST-1 agent (5% v/v solution in phenol red-free DMEM media), i.e., the cell media was discarded and 100 μL of WST-1 solution was added. After 2 h incubation, the absorbance of formazan, derived from the WST-1 tetrazolium salt was determined spectrophotometrically at 450 nm (reference at 650 nm) by a UV-vis spectrophotometer (Bio-Rad, USA). Untreated cells, cells treated only with a vehicle, and cells treated with cytochalasin B (1) and D (2) served as controls. The measurement occurred in three independent repetitions each of which consisted of three technical replicates. The data were plotted as dose–response curves from which the half-maximal inhibitory concentrations (IC50) were calculated using AAT Bioquest.

[2] = tested on: human fibroblasts (MRC-5); test: WST-1 viability assay, MRC-5 cells; settings: MRC5, 72 h treatment, WST-1 assay, 2D culture, 0–50 μM
Description: as §1, §2, §3

[3] = tested on: human melanoma cell line BLM; test: Spheroid invasion assay (migrastatic activity); settings: 10 µM, 24 h, BLM spheroids in collagen; DMSO control 1.02
Description: Compounds 17, 20, and 22–30 were screened for their migrastatic activity using a spheroid invasion assay with the human melanoma cell line BLM.[46] Spheroids were formed and subsequently treated with cytochalasin analogues at a concentration of 10 μM for 24 h. CytB (1) and CytD (2) served as reference compounds for comparison. There was no significant increase in cell migration observed for any of the compounds tested. […] However, the effect was less profound than that of the reference compounds 1 and 2.
The spheroid invasion assay was performed following a previously published protocol.[63] Briefly, BLM cells were grown as spheroids using 3D Petri Dish (Microtissues). After 2 days of spheroid formation, 1.5 mg mL^−1 collagen solution (rat tail, collagen type I) was prepared (1.5 mg mL^−1 rat-tail collagen, 1× DMEM, 1% (v/v) FBS) and added at the bottom of a 96-well plate. Spheroids were embedded into the collagen (one spheroid per well) and covered with another layer of the gel. Collagen was polymerized at 37 °C and subsequently overlaid with a cultivation medium. Images of spheroids were taken with Leica TCS SP2 microscope (5×/0.15 dry objective; LAS X Life Science Microscope software) immediately after their seeding into collagen and again after 24 h. The area of the spheroids at 0 and 24 h was measured using FiJi (Rasband, W.S., ImageJ, NIH, Bethesda, MD, USA). Cellular invasiveness was determined as an increase in spheroid area within 24 h. Three independent experiments were conducted with at least 8 spheroids analysed in each experiment. Statistical analysis was performed in GraphPad using one-way ANOVA. For numeric data and representative images from this assay, see ESI, ^† Table S1 and Fig. S1.
Table S1: Spheroid invasion assay with BLM cell line at 10 µM concentration, 24 h.
Figure S1: Representative images of BLM cell spheroid invasion assay with or without
inhibitor. Images were taken at 0 h and 24 h. using a Leica TCS SP2 microscope (5x/0.15
dry objective). DMSO (first column) was used as a control. Scale bar 500 µm.

SMILES	IC50 [1] [µM]	selectivity index (SI) [1]	IC50 [2] [µM]	rel. spheroid area [3]
COC(=O)[C@@]12C(=O)N[C@@H](Cc3ccccc3)[C@@H]1[C@H](C)C(C)=C[C@@H]2CCOCCc1ccccc1 [Compound 17a, Methyl (1S,3aR,4S,7S,7aR)-1-benzyl-6,7-dimethyl-3-oxo-4-(2-phenethoxyethyl)-1,2,3,4,7,7a-hexahydro-3aH-isoindole-3a-carboxylate]	27.1 ± 1.24	1.1	30.5 ± 0.38	1.21
COC(=O)[C@@]12C(=O)N[C@@H](Cc3ccccc3)[C@@H]1[C@H](C)C(C)=C[C@@H]2CCOCCc1ccc(OC)cc1 [Compound 17b, Methyl (1S,3aR,4S,7S,7aR)-1-benzyl-4-(2-(4-methoxyphenethoxy)ethyl)-6,7-dimethyl-3-oxo-1,2,3,4,7,7a-hexahydro-3aH-isoindole-3a-carboxylate]	35.3 ± 4.75	1.1	40.5 ± 4.65	1.14
COC(=O)[C@@]12C(=O)N[C@@H](Cc3ccccc3)[C@@H]1[C@H](C)C(C)=C[C@@H]2CCOCCc1ccc(C)cc1 [Compound 17c, Methyl (1S,3aR,4S,7S,7aR)-1-benzyl-6,7-dimethyl-4-(2-(4-methylphenethoxy)ethyl)-3-oxo-1,2,3,4,7,7a-hexahydro-3aH-isoindole-3a-carboxylate]	30.3 ± 4.87	0.71	21.5 ± 2.78	0.93
COC(=O)[C@@]12C(=O)N[C@@H](Cc3ccccc3)[C@@H]1[C@H](C)C(C)=C[C@@H]2CCOCCc1ccc(F)cc1 [Compound 17d, Methyl (1S,3aR,4S,7S,7aR)-1-benzyl-4-(2-(4-fluorophenethoxy)ethyl)-6,7-dimethyl-3-oxo-1,2,3,4,7,7a-hexahydro-3aH-isoindole-3a-carboxylate]	27.7 ± 2.45	1.2	33.5 ± 4.98	1.24
COC(=O)[C@@]12C(=O)N[C@@H](Cc3ccccc3)[C@@H]1[C@H](C)C(C)=C[C@@H]2CCOCCc1cccc(F)c1 [Compound 17e, Methyl (1S,3aR,4S,7S,7aR)-1-benzyl-4-(2-(3-fluorophenethoxy)ethyl)-6,7-dimethyl-3-oxo-1,2,3,4,7,7a-hexahydro-3aH-isoindole-3a-carboxylate]	25.9 ± 2.97	1.2	31.9 ± 4.02	0.96
COC(=O)[C@@]12C(=O)N[C@@H](Cc3ccccc3)[C@@H]1[C@H](C)C(C)=C[C@@H]2CCOCCc1ccccc1F [Compound 17f, Methyl (1S,3aR,4S,7S,7aR)-1-benzyl-4-(2-(2-fluorophenethoxy)ethyl)-6,7-dimethyl-3-oxo-1,2,3,4,7,7a-hexahydro-3aH-isoindole-3a-carboxylate]	21 ± 4.32	1.6	34.5 ± 4.69	0.92
COC(=O)[C@@]12C(=O)N[C@@H](Cc3ccccc3)[C@@H]1[C@H](C)C(C)=C[C@@H]2CCOCCc1ccc(Cl)cc1 [Compound 17g, Methyl (1S,3aR,4S,7S,7aR)-1-benzyl-4-(2-(4-chlorophenethoxy)ethyl)-6,7-dimethyl-3-oxo-1,2,3,4,7,7a-hexahydro-3aH-isoindole-3a-carboxylate]	19.5 ± 1.23	1.1	22.2 ± 12.2	1.17
COC(=O)[C@@]12C(=O)N[C@@H](Cc3ccccc3)[C@@H]1[C@H](C)C(C)=C[C@@H]2CCOCCc1ccc(Br)cc1 [Compound 17h, Methyl (1S,3aR,4S,7S,7aR)-1-benzyl-4-(2-(4-bromophenethoxy)ethyl)-6,7-dimethyl-3-oxo-1,2,3,4,7,7a-hexahydro-3aH-isoindole-3a-carboxylate]	> 50		> 50	1.05
COC(=O)[C@@]12C(=O)N[C@@H](Cc3ccccc3)[C@@H]1[C@H](C)C(C)=C[C@@H]2CCOCCc1cccc(Br)c1 [Compound 17i, Methyl (1S,3aR,4S,7S,7aR)-1-benzyl-4-(2-(3-bromophenethoxy)ethyl)-6,7-dimethyl-3-oxo-1,2,3,4,7,7a-hexahydro-3aH-isoindole-3a-carboxylate]	24.3 ± 1.82	1.3	31.2 ± 6.95	1.14
COC(=O)[C@@]12C(=O)N[C@@H](Cc3ccccc3)[C@@H]1[C@H](C)C(C)=C[C@@H]2CCOCCc1ccc([N+](=O)[O-])cc1 [Compound 17j, Methyl (1S,3aR,4S,7S,7aR)-1-benzyl-6,7-dimethyl-4-(2-(4-nitrophenethoxy)ethyl)-3-oxo-1,2,3,4,7,7a-hexahydro-3aH-isoindole-3a-carboxylate]	35.2 ± 2.51	1.0	34.7 ± 6.18	1.12
COC(=O)[C@@]12C(=O)N[C@@H](Cc3ccccc3)[C@@H]1[C@H](C)[C@@]1(C)O[C@H]1[C@@H]2CCOCCc1ccccc1 [Compound 22a, Methyl (1aS,2R,2aS,5S,5aR,6S,6aR)-5-benzyl-6,6a-dimethyl-3-oxo-2-(2-phenethoxyethyl)octahydro-2aH-oxireno[2,3-f]isoindole-2a-carboxylate]	> 50		> 50	1.11
COC(=O)[C@@]12C(=O)N[C@@H](Cc3ccccc3)[C@@H]1[C@H](C)[C@@]1(C)O[C@H]1[C@@H]2CCOCCc1ccc(OC)cc1 [Compound 22b, Methyl (1aS,2R,2aS,5S,5aR,6S,6aR)-5-benzyl-2-(2-(4-methoxyphenethoxy)ethyl)-6,6a-dimethyl-3-oxooctahydro-2aH-oxireno[2,3-f]isoindole-2a-carboxylate]	20.6 ± 6.43	>2.4	> 50	1.24
COC(=O)[C@@]12C(=O)N[C@@H](Cc3ccccc3)[C@@H]1[C@H](C)[C@@]1(C)O[C@H]1[C@@H]2CCOCCc1ccc(Br)cc1 [Compound 22h, Methyl (1aS,2R,2aS,5S,5aR,6S,6aR)-5-benzyl-2-(2-(4-bromophenethoxy)ethyl)-6,6a-dimethyl-3-oxooctahydro-2aH-oxireno[2,3-f]isoindole-2a-carboxylate]	> 50		> 50	0.98
COC(=O)[C@@]12C(=O)N[C@@H](Cc3ccccc3)[C@@H]1[C@H](C)[C@@](C)(O)[C@@H](O)[C@@H]2CCOCCc1ccccc1 [Compound 23a, Methyl (1S,3aS,4R,5S,6R,7S,7aR)-1-benzyl-5,6-dihydroxy-6,7-dimethyl-3-oxo-4-(2-phenethoxyethyl)octahydro-3aH-isoindole-3a-carboxylate]	9.41 ± 2.52	2.2	20.9 ± 2.38	1.01
COC(=O)[C@@]12C(=O)N[C@@H](Cc3ccccc3)[C@@H]1[C@H](C)[C@@](C)(O)[C@@H](O)[C@@H]2CCOCCc1ccc(OC)cc1 [Compound 23b, Methyl (1S,3aS,4R,5S,6R,7S,7aR)-1-benzyl-5,6-dihydroxy-4-(2-(4-methoxyphenethoxy)ethyl)-6,7-dimethyl-3-oxooctahydro-3aH-isoindole-3a-carboxylate]	> 50		> 50	1.10
